Laboratory results from patent publication US20050124794A1, “Cell surface tropomyosin as a target of angiogenesis inhibition” (priority 2002, published 2005).
Numbered stars: 1 amine (or outer) side, 2 acyl side, 3 side chain; on linkers, the order of the positions; unused ones are H or OH. Square brackets hold non-standard residues; d marks the D form. Ends that are not written are not given here. Peptide text beside a SMILES is read from it. * marks the point of attachment. X3 = O=C([C@H](Cc1c[nH]cn1)N(Cc1ccc(Cl)cc1)[*:1])[*:2]; Fmoc = O=C(OCC1c2ccccc2-c2ccccc21)*

Tests used:
chicken gizzard Tpm = target: T1, chicken gizzard Tpm (Gallus gallus, UniProt P19352); assay: Binding to immobilized Tpm in a 96 well plate (biotin-HKa competition or direct binding); conditions: 10 μM ZnCl2; for IC50: displacement of 10 nM biotinylated-HKa; for binding to immobilized Tpm / displacement of biotin-HKa (in words): 10 nM biotin-HKa, 200 ng chicken gizzard Tpm
T1 construct: purchased Sigma; host or cells: chicken gizzard (tissue-derived, as the name says)
Procedure: Plates are coated at room temperature with chicken gizzard Tpm (Sigma) in Tris buffer-saline (TBS) (200 ng/well). After incubation for 2 hours, wells are washed with TBS, then 1% BSA/TBS/Tween-20 is added to each well and incubate at 37° C. for two hours. HKa (Enzyme Laboratories) that had been previously biotinylated with EZ-Link (Pierce) according to the manufacturers instructions, is added to the plate at a concentration of 10 nM together with ZnCl2 (10 μM) and the appropriate concentration of the protein, domain or peptide competitor. The plates are incubated at room temperature and then washed with TBS/Tween-20. Avidin-HRP is added, incubated for 20 minutes at room temperature, washed with TBS/Tween-20 and the chromogenic substrate is added. The reaction is stopped with sulfuric acid and the plate read at 490 nm.
(§1) The IC50 for the displacement of biotinylated-HKa for the peptides shown in Table 5 was determined as follows: 10 nM biotin-HKa is added to a 96 well plate previously coated with 200 ng of chicken gizzard Tpm in the presence of 10 μM ZnCl2. Increasing amounts of the peptides are added to the wells. The remaining biotin-HKa bound to Tpm was detected using avidin-HRP and a chromogenic substrate. A Kd was determined by non-linear regression analysis of the empirical data. The effect on the Matrigel Plug assay was determined as follows: Matrigel (0.5 mL) containing 400 ng/ml of bFGF, 50 μg/ml heparin with or without the peptide (300 μM) or saline buffer are injected in the flanks of a mouse. After five days, the plugs are removed and the plugs scanned.
The N-terminus of the pentapeptide HHPHG has been derivatized (capped) in an attempt to increase the pentapeptides' affinity to Tpm by increasing productive molecular contacts (or interactions). […] The IC50 for the displacement of biotinylated-HKa for the capped peptides shown in the table was determined as follows: 10 nM biotin-HKa was added to a 96 well plate previously coated with 200 ng of chicken gizzard Tpm in the presence of 10 μM ZnCl2. Increasing amounts of the peptides were added to the wells. The remaining biotin-HKa bound to Tpm was detected using avidin-HRP and a chromogenic substrate. A Kd was determined by non-linear regression analysis of the empirical data

MatLyLu cells = assay: Matrigel/MatLyLu model (Matrigel plug with tumor cells); format: in vivo; conditions: 700 μM ATN230 or 900 μM ATN294, 2×10^6 MatLyLu cells in mouse flank, seven days
Source text: In this assay, tumor cells, for example 1-5×10^6 cells of the 3LL Lewis lung carcinoma or the rat prostate cell line MatLyLu, are mixed with Matrigel® and then injected into the flank of a mouse following the protocol described in Sec. B., above. A mass of tumor cells and a powerful angiogenic response can be observed in the plugs after about 5 to 7 days. The anti-tumor and anti-angiogenic action of a compound in an actual tumor environment can be evaluated by including it in the plug. Measurement is then made of tumor weight, Hb levels or fluorescence levels (of a dextran-fluorophore conjugate injected prior to sacrifice). To measure Hb or fluorescence, the plugs are first homogenize with a tissue homogenizer.

[1] = tested on: bFGF-induced angiogenesis; assay: Matrigel plug assay (bFGF-induced angiogenesis); format: in vivo, mouse; conditions: 400 ng/ml bFGF, five days, plugs scanned; for Inhibits Angiogenesis (Matrigel ® assay): peptide 300 μM, 50 μg/ml heparin
Procedure: This assay is performed essentially as described by Passaniti et al. (Lab Invest. 67:519-528 (1992). Ice-cold Matrigel® (e.g., 500 μL) (Collaborative Biomedical Products, Inc., Bedford, Mass.) is mixed with heparin (e.g., 50 μg/ml), FGF-2 (e.g., 400 ng/ml) and the compound to be tested. In some assays, bFGF may be substituted with tumor cells as the angiogenic stimulus. The Matrigel® mixture is injected subcutaneously into 4-8 week-old athymic nude mice at sites near the abdominal midline, preferably 3 injections per mouse. The injected Matrigel® forms a palpable solid gel. Injection sites are chosen such that each animal receives a positive control plug (such as FGF-2+heparin), a negative control plug (e.g., buffer+heparin) and a plug that includes the compound being tested for its effect on angiogenesis, e.g., (FGF-2+heparin+compound). All treatments are preferably run in triplicate. Animals are sacrificed by cervical dislocation at about 7 days post injection or another time that may be optimal for observing angiogenesis. The mouse skin is detached along the abdominal midline, and the Matrigel® plugs are recovered and scanned immediately at high resolution. Plugs are then dispersed in water and incubated at 37° C. overnight. Hemoglobin (Hb) levels are determined using Drabkin's solution (e.g., obtained from Sigma) according to the manufacturers' instructions. The amount of Hb in the plug is an indirect measure of angiogenesis as it reflects the amount of blood in the sample. In addition, or alternatively, animals may be injected prior to sacrifice with a 0.1 ml buffer (preferably PBS) containing a high molecular weight dextran to which is conjugated a fluorophore. The amount of fluorescence in the dispersed plug, determined fluorimetrically, also serves as a measure of angiogenesis in the plug. Staining with mAb anti-CD31 (CD31 is “platelet-EC adhesion molecule or PECAM”) may also be used to confirm neovessel formation and microvessel density in the plugs.
as §1
These cyclic peptides were also tested for their ability to inhibit bFGF-induced angiogenesis in vivo in a Matrigel plug assay. Matrigel (0.5 mL) containing 400 ng/ml of bFGF, 50 μg/ml heparin with or without 10 μM peptide (ATN-310, ATN-311 or ATN-312 or saline buffer for the controls, was injected subcutaneously in the hind flanks of a mouse as described above. All the treatments were done in triplicate. After five days, the vascularization of the Matrigel plug was determined fluorometrically after i.v. injection of 100 μl of dextran conjugated with fluorescein isothiocyanate (FITC-dextran; MW 250,000, Sigma). Five days after injection, the plugs were removed and subjected to mincing of tissue which releases vascular FITC-dextran into the supernatant. Samples of supernatant were subjected to fluorimetry as a measure of vascularity of the plug. The amount of vasculature (neovessels) is directly proportional to the fluorescent signal which reflects the total vascular blood volume of the plug. The results are shown in Table 7, below and expressed as arbitrary fluorescence units or as % inhibition relative to the negative control.

[2] = target: T2, D5 domain of human kininogen, HKa (Homo sapiens, UniProt P01042); assay: Binding to HKa D5 (affinity column)
T2 construct: made in house
T2 sequence (P01042 402-526): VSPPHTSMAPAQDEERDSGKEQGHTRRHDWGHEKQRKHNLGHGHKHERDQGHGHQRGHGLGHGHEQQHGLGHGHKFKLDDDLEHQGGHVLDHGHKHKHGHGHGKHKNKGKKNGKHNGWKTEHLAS
Procedure: Chicken gizzard Tpm was partially digested with Chymotrypsin as described for FIG. 19 for 100 minutes so that a 20 kDa fragment was enriched. HK-D5 had previously immobilized in an activated Sepharose (CNBr-activated Sepharose 4 B, Amersham Biosciences). The chymotryptic fragments were incubated with the HK-D5-Sepharose resin in TBS containing 10 μM ZnCl2, washed extensively in the same buffer and eluted in 2 M NaCl. The samples were run in a 10% NuPage gel (Invitrogen).
The present inventors discovered the AALBP by passing a chymotryptic digest of cTPM1 over an affinity column comprising an antiangiogenic polypeptide, specifically, the D5 domain of human kininogen, HKa. Material that bound to the column was subjected to N-terminal sequencing. The sequence was determined to be SESVKEAQE, corresponding to residues 61-69 of cTPM1 (SEQ ID NO: 1) and residues 1-9 of SEQ ID NO:2.
The fragment was partially purified by passing the chymotryptic digest through an affinity column of Sepharose-HKa-D5. The column was extensively washed and eluted with high salt buffer. The resulting material was run on an SDS gel which appears in (FIG. 20). […]

[3] = Table 6, N-capped HHPHG peptides

T1 sequence (P19352 1-284 isoform P19352-2): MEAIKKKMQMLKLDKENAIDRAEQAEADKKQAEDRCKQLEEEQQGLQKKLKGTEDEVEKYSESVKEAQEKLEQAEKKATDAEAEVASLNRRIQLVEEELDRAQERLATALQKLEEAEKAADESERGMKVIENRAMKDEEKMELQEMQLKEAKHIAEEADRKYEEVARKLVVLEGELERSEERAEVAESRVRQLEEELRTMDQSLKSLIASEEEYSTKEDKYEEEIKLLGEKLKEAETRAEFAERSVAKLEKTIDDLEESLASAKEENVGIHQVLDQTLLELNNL
T1 sequence (P04268 1-284 isoform P04268-2 F73S/I172L/T199L/N203E/L204A partner): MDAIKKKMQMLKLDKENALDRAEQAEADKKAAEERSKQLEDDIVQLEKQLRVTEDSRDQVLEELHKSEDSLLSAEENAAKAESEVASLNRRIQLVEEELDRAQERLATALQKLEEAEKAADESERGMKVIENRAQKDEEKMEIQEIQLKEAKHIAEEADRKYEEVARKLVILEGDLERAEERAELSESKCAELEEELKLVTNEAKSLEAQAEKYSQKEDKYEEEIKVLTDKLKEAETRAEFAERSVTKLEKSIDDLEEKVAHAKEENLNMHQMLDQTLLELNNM

Work on `O=C(O)CNC(=O)[C@H](Cc1c[nH]cn1)NC(=O)[C@@H]1CCCN1C(=O)[C@H](Cc1c[nH]cn1)NC(=O)[C@H](Cc1c[nH]cn1)NCc1ccc(Cl)cc1` [ATN-276.000.01, 4-Chlorobenzyl] (H-[X3]HPHG-OH) yielded an IC50 (chicken gizzard Tpm; [3]) of 23 µM.

For `O=C(O)CNC(=O)[C@H](Cc1c[nH]cn1)NC(=O)[C@@H]1CCCN1C(=O)[C@H](Cc1c[nH]cn1)NC(=O)[C@H](Cc1c[nH]cn1)NC(=O)OCC1c2ccccc2-c2ccccc21` [ATN-278.000.01, Fmoc] (Fmoc-HHPHG-OH; C-terminus assumed), the IC50 (chicken gizzard Tpm; [3]) was 55 µM.

For AHPHG [ATN294], the “binding to immobilized Tpm / displacement of biotin-HKa (in words)” value (chicken gizzard Tpm) was “abolished”, the “inhibition of MatLyLu growth, plug weight (in words)” value (“inhibition of MatLyLu growth” for short) (MatLyLu cells) was “not” and the “inhibition of MatLyLu growth” value (MatLyLu cells; listed as AHPHG) was “significantly less anti-tumor activity”.

With APPHG [ATN246, APPHG] the IC50 (chicken gizzard Tpm; Table 5) was > 10000 µM.

With Ac-HHPHG [ATN269, c-HHPHG] the IC50 (chicken gizzard Tpm; Table 5) was > 10000 µM.

For Ac-HHPHG-NH2 [ATN239, c-HHPHG-c], the IC50 (chicken gizzard Tpm; Table 5) was > 10000 µM.

With Ac-HPPHG-NH2 [ATN231, c-HPPHG-c] the IC50 (chicken gizzard Tpm; Table 5) was > 10000 µM.

With Ac-PPPHG-NH2 [ATN229, c-PPPHG-c] the IC50 (chicken gizzard Tpm; Table 5) was > 10000 µM.

For HHPHG [ATN230, HHPHG], the “Inhibits Angiogenesis (Matrigel ® assay)” value [1] was “Yes”, the “Inhibits Angiogenesis (Matrigel ® assay)” value ([1]; listed as HHPHG) was “substantial activity” and the “inhibition of MatLyLu growth” value (MatLyLu cells) was “inhibited MatLyLu growth”. The “inhibition of MatLyLu growth” value (MatLyLu cells; listed as HHPHG) was “anti-tumor activity”.

For HKNKGKKN [ATN16, HKNKGKKN], the “Inhibits Angiogenesis (Matrigel ® assay)” value [1] was “Yes” and the IC50 (chicken gizzard Tpm; Table 5) was 99.5 µM.

For HPPHG [ATN228, HPPHG], the “inhibition of angiogenesis in the Matrigel plug model (in words)” value ([1]; 20 μg peptide) was “inhibited angiogenesis”, the “Inhibits Angiogenesis (Matrigel ® assay)” value [1] was “Yes” and the “binding to immobilized Tpm / displacement of biotin-HKa (in words)” value (chicken gizzard Tpm) was “bound”.

With PPPHG [ATN227, PPPHG] the IC50 (chicken gizzard Tpm; Table 5) was > 10000 µM.

For “SEQ ID NO:2: chymotryptic fragment, residues 61-214 of chicken gizzard cTPM1, about 17 kDa”, the “binding to HKa D5 (in words)” value [2] was “binds”.

For TRRHDWGH [ATN232, TRRHDWGH], the “Inhibits Angiogenesis (Matrigel ® assay)” value [1] was “Yes” and the IC50 (chicken gizzard Tpm; Table 5) was 140 µM.
